This note sets out measurements from US20240043384A1, “INHIBITORS OF PU.1 FOR THE TREATMENT OF DISEASE” (Board of Regents, The University of Texas System, priority 2021, published 2024).

A word on the IC50: it is the point on the concentration scale where inhibition reaches its midpoint. The low end stands for greater potency in that assay, the high end for weaker potency in that assay.

Molecules are shown by their SMILES.

The test system of the first experiment is THP-1 CD14. The experiment is described as follows: THP-1 CD14 Screening Assay. Conditions: Homo sapiens, THP-1, 72 h, THP-1 cells treated with PMA and compound (5-point 10-fold dilution), human CD14 ELISA on media. The format is cell-based. Here is the method:
THP-1 CD14 Screening Assay Protocol:
5×10^4 THP-1 cells were plated per well in a tissue culture-treated 96-well plate. At the time of plating, cells were treated with a final concentration of […] PMA and 0.04% DMSO vehicle, concominant with compounds in a 5-point 10-fold dilution per compound. Cells were treated with PMA and DMSO as a control for differentiation without compound treatment, and with only DMSO as a control for no differentiation and no compound treatment. 500 nM IACS-71432 was added as a control compound across all assay plates.
After incubation at 37° C./5% CO2 for 72 hr, media was collected from the cells and the screening assay was performed using the commercially-available human CD14 SimpleStep ELISA kit from Abcam, according to the following protocol: • 1) ELISA kits were taken out to equilibrate to rt. • 2) Following the protocol listed in the kit, standards were prepared as 1:1 dilutions from 2 ng/ml. • 3) Following the protocol listed in the kit, antibody cocktail was prepared (the volume is contingent on the number of wells required). • 4) 50 μl of standards were added to the appropriate wells, thoroughly mizing the standards before adding to each well. • 5) 25 μl of Sample Diluent (from kit) was added to all sample wells. • 6) Cell plates were centrifuged for 5 min at 300 rcf, with slow acceleration and slow deceleration. • 7) 25 μl of media from cell plates was transferred to assay plates containing standards. • 8) 50 μl of antibody cocktail was added to all of the wells, standards and samples. • 9) Assay plates were sealed tightly and incubated on the plate shaker at 400 rpm for 1 hr at rt. • 10) Wash buffer was prepared following the protocol listed in the kit. • 11) After the hour incubation, assay plates were washed 5 times using 200 μl wash buffer per well per wash. • 12) 100 μl of TMB substrate was added to each well in the dark and incubated on the shaker for 3-4.min, at which point color development was monitored to ensure a robust signal for detection but to avoid oversaturation of signal, for no longer than 10 min. • 13) The absorbance at 607 nm was read on a Perkin Elmer Envision plate reader. • 14) Data was processed using Microsoft Excel and GraphPad Prism.
On the technique in general: ELISA stands for enzyme-linked immunosorbent assay.
In the case of `O=S(=O)(NCc1ccncc1)c1ccc(C2=CCCC2)cc1` [Example 1, 4-(Cyclopent-1-en-1-yl)-N-(pyridin-4-ylmethyl)benzenesulfonamide], the IC50 lay in the range of 5 to 100 nM.
For `O=S(=O)(NCc1ccncc1)c1ccc(C2CCCC2)cc1` [Example 2, 4-cyclopentyl-N-(pyridin-4-ylmethyl)benzenesulfonamide], the IC50 is < 5 nM.
`CN1CCN(c2ccc(S(=O)(=O)NCc3ccncc3)cc2)CC1` [Example 3, 4-(4-methylpiperazin-1-yl)-N-(pyridin-4-ylmethyl)benzenesulfonamide] showed an IC50 of 100 to 500 nM.
On the same count and under the same terms, with `O=S(=O)(NCc1ccncc1)c1ccc(-c2cccnc2)cc1` [Example 4, 4-(pyridin-3-yl)-N-(pyridin-4-ylmethyl)benzenesulfonamide] the figure was 100 to 500 nM.
On the same count and under the same terms, with `O=S(=O)(NCc1ccncc1)c1ccc(-c2cccc(Cl)n2)cc1` [Example 5, 4-(6-chloropyridin-2-yl)-N-(pyridin-4-ylmethyl)benzenesulfonamide] the figure was 100 to 500 nM; with `O=S(=O)(Nc1cccc2cnccc12)c1ccc(C2CCCCC2)cc1` [Example 6, 4-Cyclohexyl-N-(isoquinolin-5-yl)benzenesulfonamide], < 5 nM; with `O=S(=O)(Nc1cccc2cnccc12)c1ccc(C2CCOCC2)cc1` [Example 7, N-(Isoquinolin-5-yl)-4-(tetrahydro-2H-pyran-4-yl)enzenesulfonamide], < 5 nM.
Turning to `O=S(=O)(NCc1ccnc(F)c1)c1ccc(C2CCCCC2)cc1` [Example 8, 4-cyclohexyl-N-((2-fluoropyridin-4-yl)methyl)benzenesulfonamide], the IC50 is < 5 nM.
For the compound `Nc1cc(CNS(=O)(=O)c2ccc(C3CCCCC3)cc2)ccn1` [Example 9, N-((2-aminopyridin-4-yl)methyl)-4-cyclohexylbenzenesulfonamide], the IC50 was < 5 nM.
Same read-out and setting: the value for `CC(=O)Nc1cc(CNS(=O)(=O)c2ccc(C3CCCCC3)cc2)ccn1` [Example 10, N-(4-(((4-cyclohexylphenyl)sulfonamido)methyl)pyridin-2-yl)acetamide] was 5 to 100 nM; that for `O=S(=O)(NCc1ccncc1)c1ccc(OCC2CCCO2)cc1` (centres unmarked) [Example 11, N-(pyridin-4-ylmethyl)-4-((tetrahydrofuran-2-yl)methoxy)benzenesulfonamide] was < 5 nM; that for `O=S(=O)(NCc1ccncc1)c1ccc(C2=CCOCC2)cc1` [Example 12, 4-(3,6-dihydro-2H-pyran-4-yl)-N-(pyridin-4-ylmethyl)-benzenesulfonamide] was 5 to 100 nM.
Consider `CN1CC=C(c2ccc(S(=O)(=O)NCc3ccncc3)cc2)CC1` [Example 13, 4-(1-methyl-1,2,3,6-tetrahydropyridin-4-yl)-N-(pyridin-4-ylmethyl)-benzenesulfonamide], for which the IC50 lay in the range of 100 to 500 nM.
Regarding `O=S(=O)(NCc1ccncc1)c1ccc(C2=CCC(F)(F)CC2)cc1` [Example 14, 4′,4′-difluoro-N-(pyridin-4-ylmethyl)-2′,3′,4′,5′-tetrahydro-[1,1′-biphenyl]-4-sulfonamide], the IC50 was < 5 nM.
The same measure, in the same setting: with `O=S(=O)(NCc1ccncc1)c1ccc(C2CCC(F)(F)CC2)cc1` [Example 15, 4-(4,4-difluorocyclohexyl)-N-(pyridin-4-ylmethyl)-benzenesulfonamide] the figure was < 5 nM; with `O=S(=O)(NCc1ccncc1)c1ccc(C2CCOCC2)cc1` [Example 16, N-(pyridin-4-ylmethyl)-4-(tetrahydro-2H-pyran-4-yl)-benzenesulfonamide], < 5 nM; with `O=S(=O)(NCc1ccncc1)c1ccc(C2CCCOC2)cc1` (centres unmarked) [Example 17, N-(pyridin-4-ylmethyl)-4-(tetrahydro-2H-pyran-3-yl)-benzenesulfonamide], < 5 nM.
On the same count and under the same terms, with `O=S1(=O)CCC(c2ccc(S(=O)(=O)NCc3ccncc3)cc2)CC1` [Example 18, 4-(1,1-dioxotetrahydro-2H-thiopyran-4-yl)-N-(pyridin-4-ylmethyl)-benzenesulfonamide] the figure was > 500 nM; with `O=S(=O)(NCc1ccncc1)c1ccc(C2CCOC2)cc1` (centres unmarked) [Example 19, N-(pyridin-4-ylmethyl)-4-(tetrahydrofuran-3-yl)-benzenesulfonamide], 5 to 100 nM.
As to `CC1(C)CCC(c2ccc(S(=O)(=O)NCc3ccncc3)cc2)CC1` [Example 20, 4-(4,4-dimethyl-cyclohexyl)-N-(pyridin-4-ylmethyl) benzenesulfonamide], the IC50 is < 5 nM.
`CC(=O)N1CCC(c2ccc(S(=O)(=O)NCc3ccncc3)cc2)C1` (centres unmarked) [Example 21, 4-(1-acetylpyrrolidin-3-yl)-N-(pyridin-4-ylmethyl)-benzenesulfonamide]: the IC50 was > 500 nM.
The same measure, in the same setting: the value for `O=S(=O)(NCc1ccncc1)c1ccc(N2CCCCC2)cc1` [Example 22, 4-(piperidin-1-yl)-N-(pyridin-4-ylmethyl)-benzenesulfonamide] was 5 to 100 nM; that for `O=S(=O)(NCc1ccncc1)c1ccc(N2CCC(F)(F)CC2)cc1` [Example 23, 4-(4,4-difluoropiperidin-1-yl)-N-(pyridin-4-ylmethyl)-benzenesulfonamide] was 5 to 100 nM.
The same measure, in the same setting: with `O=S(=O)(NCc1ccncc1)c1ccc(N2CCOCC2)cc1` [Example 24, 4-morpholino-N-(pyridin-4-ylmethyl)benzenesulfonamide] the figure was 100 to 500 nM; with `O=S(=O)(NCc1ccncc1)c1ccc(N2CCCC2)cc1` [Example 25, N-(pyridin-4-ylmethyl)-4-(pyrrolidin-1-yl)benzenesulfonamide], 5 to 100 nM; with `CC1(C)CCN(c2ccc(S(=O)(=O)NCc3ccncc3)cc2)C1` [Example 26, 4-(3,3-dimethylpyrrolidin-1-yl)-N-(pyridin-4-yl-methyl)benzenesulfonamide], 5 to 100 nM.
Still for that read-out and setting: with `O=S(=O)(NCc1ccncc1)c1ccc(N2CCCC(F)(F)C2)cc1` [Example 27, 4-(3,3-difluoropiperidin-1-yl)-N-(pyridin-4-ylmethyl)-benzenesulfonamide] the figure was 5 to 100 nM; with `CC1CCN(c2ccc(S(=O)(=O)NCc3ccncc3)cc2)C1` (centres unmarked) [Example 28, 4-(3-methylpyrrolidin-1-yl)-N-(pyridin-4-ylmethyl)-benzenesulfonamide], 5 to 100 nM; with `O=S(=O)(NCc1ccncc1)c1ccc(N2CCC(F)(F)C2)cc1` [Example 29, 4-(3,3-difluoropyrrolidin-1-yl)-N-(pyridin-4-ylmethyl)-benzenesulfonamide], 5 to 100 nM.
Compound `O=S(=O)(NCc1ccncc1)c1ccc(N2CCCC(F)C2)cc1` (centres unmarked) [Example 30, 4-(3-fluoropiperidin-1-yl)-N-(pyridin-4-ylmethyl)-benzenesulfonamide] showed an IC50 of 5 to 100 nM.
On the same count and under the same terms, the value for `CC1(C)CN(c2ccc(S(=O)(=O)NCc3ccncc3)cc2)C1` [Example 32, 4-(3,3-dimethylazetidin-1-yl)-N-[(pyridin-4-yl)methyl]benzene-1-sulfonamide] was 5 to 100 nM.
Regarding `O=S(=O)(NCc1ccncc1)c1ccc(N2CC3(CCC3)C2)cc1` [Example 33, N-(pyridin-4-ylmethyl)-4-(2-azaspiro[3.3]heptan-2-yl)benzenesulfonamide], the IC50 was in the range of 5 to 100 nM.
Still for that read-out and setting: the value for `O=S(=O)(NCc1ccncc1)c1ccc(N2CC3(C2)CC(F)(F)C3)cc1` [Example 34, 4-(6,6-difluoro-2-azaspiro[3.3]heptan-2-yl)-N-(pyridin-4-ylmethyl)-benzenesulfonamide] was 5 to 100 nM; that for `O=S(=O)(NCc1ccncc1)c1ccc(N2CCC3(CC2)CC3)cc1` [Example 35, N-(pyridin-4-ylmethyl)-4-(6-azaspiro[2.5]octan-6-yl)-benzenesulfonamide] was < 5 nM.
In the case of `CC1(C)CCN(c2ccc(S(=O)(=O)NCc3ccncc3)cc2)CC1` [Example 36, 4-(4,4-dimethylpiperidin-1-yl)-N-(pyridin-4-ylmethyl)-benzenesulfonamide], the IC50 was < 5 nM.

Staying with this experiment, now noted: THP-1 cells treated with PMA and compound (5-point 10-fold dilution), 72 hr; human CD14 ELISA on media.
Regarding `Cc1nc2cc(-c3ccc(S(=O)(=O)NCc4ccncc4)cc3)ccc2s1` [49 (a), 4-(2-methyl-benzo[d]thiazol-5-yl)-N-(pyridin-4-ylmethyl)-benzenesulfonamide], the IC50 was < 5 nM.
The same measure, in the same setting: with `Cc1nc2cc(-c3ccc(S(=O)(=O)NCc4ccncc4)cc3)ccc2s1` [49 (b), 4-(2-methyl-benzo[d]thiazol-5-yl)-N-(pyridin-4-ylmethyl)-benzenesulfonamide] the figure was 100 to 500 nM; with `O=S(=O)(NCc1ccncc1)c1ccc(N2CCCC(F)(F)C2)cc1` [Example 31, 4-(3,3-difluoropiperidin-1-yl)-N-(pyridin-4-ylmethyl)-benzenesulfonamide], < 5 nM.
